System: HL-60
Test: Cytotoxicity against human HL-60 cells assessed as reduction in cell viability incubated for 48 hrs by MTS assay
Type: functional, cell-based
Settings: HL-60, 48 h

Row | Compound | IC50 [nM]
1 | CC(C)=CCc1c(O)cc(O)c2c1O[C@]13C(=C[C@H]4C[C@H]1C(C)(C)O[C@@]3(CC=C(C)C)C4=O)C2=O | 1100
2 | CC(C)=CC[C@@]12OC(C)(C)[C@@H]3C[C@H](C=C4C(=O)c5c(O)cc(O)cc5O[C@]431)C2=O | 6300

System: A549
Test: Cytotoxicity against human A549 cells assessed as reduction in cell viability incubated for 48 hrs by MTS assay
Type: functional, cell-based
Settings: A549, 48 h

Row | Compound | IC50 [nM]
3 | CC(C)=CCc1c(O)cc(O)c2c1O[C@]13C(=C[C@H]4C[C@H]1C(C)(C)O[C@@]3(CC=C(C)C)C4=O)C2=O | 800
4 | CC1(C)C=Cc2c(cc(O)c3c(=O)c4ccc(O)c(O)c4oc23)O1 | 3900
5 | CC(C)=CC[C@@]12OC(C)(C)[C@@H]3C[C@H](C=C4C(=O)c5c(O)cc(O)cc5O[C@]431)C2=O | 2600

System: SMMC-7721
Test: Cytotoxicity against human SMMC-7721 cells assessed as reduction in cell viability incubated for 48 hrs by MTS assay
Type: functional, cell-based
Settings: SMMC-7721, 48 h

Row | Compound | IC50 [nM]
6 | CC(C)=CCc1c(O)cc(O)c2c1O[C@]13C(=C[C@H]4C[C@H]1C(C)(C)O[C@@]3(CC=C(C)C)C4=O)C2=O | 500
7 | CC1(C)C=Cc2c(cc(O)c3c(=O)c4ccc(O)c(O)c4oc23)O1 | 2200
8 | CC(C)=CC[C@@]12OC(C)(C)[C@@H]3C[C@H](C=C4C(=O)c5c(O)cc(O)cc5O[C@]431)C2=O | 1400

System: MDA-MB-231
Test: Cytotoxicity against human MDA-MB-231 cells assessed as reduction in cell viability incubated for 48 hrs by MTS assay
Type: functional, cell-based
Settings: MDA-MB-231, 48 h

Row | Compound | IC50 [nM]
9 | CC(C)=CCc1c(O)cc(O)c2c1O[C@]13C(=C[C@H]4C[C@H]1C(C)(C)O[C@@]3(CC=C(C)C)C4=O)C2=O | 1300
10 | CC1(C)C=Cc2c(cc(O)c3c(=O)c4ccc(O)c(O)c4oc23)O1 | 8900
11 | CC(C)=CC[C@@]12OC(C)(C)[C@@H]3C[C@H](C=C4C(=O)c5c(O)cc(O)cc5O[C@]431)C2=O | 5700

System: SW480
Test: Cytotoxicity against human SW480 cells assessed as reduction in cell viability incubated for 48 hrs by MTS assay
Type: functional, cell-based
Settings: SW480, 48 h

Row | Compound | IC50 [nM]
12 | CC(C)=CCc1c(O)cc(O)c2c1O[C@]13C(=C[C@H]4C[C@H]1C(C)(C)O[C@@]3(CC=C(C)C)C4=O)C2=O | 1000
13 | CC1(C)C=Cc2c(cc(O)c3c(=O)c4ccc(O)c(O)c4oc23)O1 | 4000
14 | CC(C)=CC[C@@]12OC(C)(C)[C@@H]3C[C@H](C=C4C(=O)c5c(O)cc(O)cc5O[C@]431)C2=O | 3700

System: not listed separately
Test: Cytotoxicity against human BEAS-2B cells assessed as reduction in cell viability incubated for 48 hrs by MTS assay
Type: toxicity, cell-based
Settings: not given

Row | Compound | IC50 at 48 h [nM]
15 | CC(C)=CCc1c(O)cc(O)c2c1O[C@]13C(=C[C@H]4C[C@H]1C(C)(C)O[C@@]3(CC=C(C)C)C4=O)C2=O | 700
16 | CC1(C)C=Cc2c(cc(O)c3c(=O)c4ccc(O)c(O)c4oc23)O1 | 21100
17 | CC(C)=CC[C@@]12OC(C)(C)[C@@H]3C[C@H](C=C4C(=O)c5c(O)cc(O)cc5O[C@]431)C2=O | 3200

System: SMMC-7721
Test: Induction of apoptosis in human SMMC-7721 cells assessed as viable cells at 5 uM incubated for 24 hrs by Annexin V-PE/7-AAD staining based flow cytometry analysis (Rvb= 98.6%)
Type: functional
Settings: read-out: Activity

Row | Compound | viability at 5 µM [%]
18 | COc1cccc2c1C(=O)c1c(O)c3c(c(O)c1C2=O)C[C@@](O)(C(=O)CO)C[C@@H]3O[C@H]1C[C@H](N)[C@H](O)[C@H](C)O1 [DOXORUBICIN] | 1.34
19 | CC(C)=CC[C@@]12OC(C)(C)[C@@H]3C[C@H](C=C4C(=O)c5c(O)cc(O)cc5O[C@]431)C2=O | 85.4

System: SMMC-7721
Test: Induction of apoptosis in human SMMC-7721 cells assessed as early apoptotic cells at 5 uM incubated for 24 hrs by Annexin V-PE/7-AAD staining based flow cytometry analysis (Rvb= 0.231%)
Type: functional
Settings: not given

Row | Compound | Activity [%]
20 | COc1cccc2c1C(=O)c1c(O)c3c(c(O)c1C2=O)C[C@@](O)(C(=O)CO)C[C@@H]3O[C@H]1C[C@H](N)[C@H](O)[C@H](C)O1 [DOXORUBICIN] | 0.796
21 | CC(C)=CC[C@@]12OC(C)(C)[C@@H]3C[C@H](C=C4C(=O)c5c(O)cc(O)cc5O[C@]431)C2=O | 3.74

System: SMMC-7721
Test: Induction of apoptosis in human SMMC-7721 cells assessed as late apoptotic cells at 5 uM incubated for 24 hrs by Annexin V-PE/7-AAD staining based flow cytometry analysis (Rvb= 0.627%)
Type: functional
Settings: not given

Row | Compound | Activity [%]
22 | COc1cccc2c1C(=O)c1c(O)c3c(c(O)c1C2=O)C[C@@](O)(C(=O)CO)C[C@@H]3O[C@H]1C[C@H](N)[C@H](O)[C@H](C)O1 [DOXORUBICIN] | 96
23 | CC(C)=CC[C@@]12OC(C)(C)[C@@H]3C[C@H](C=C4C(=O)c5c(O)cc(O)cc5O[C@]431)C2=O | 9.08

System: SMMC-7721
Test: Induction of apoptosis in human SMMC-7721 cells assessed as necrotic cells at 5 uM incubated for 24 hrs by Annexin V-FITC/PI staining based flow cytometry analysis (Rvb= 0.572%)
Type: functional
Settings: not given

Row | Compound | Activity [%]
24 | COc1cccc2c1C(=O)c1c(O)c3c(c(O)c1C2=O)C[C@@](O)(C(=O)CO)C[C@@H]3O[C@H]1C[C@H](N)[C@H](O)[C@H](C)O1 [DOXORUBICIN] | 1.85
25 | CC(C)=CC[C@@]12OC(C)(C)[C@@H]3C[C@H](C=C4C(=O)c5c(O)cc(O)cc5O[C@]431)C2=O | 1.8

System: SMMC-7721
Test: Induction of apoptosis in human SMMC-7721 cells assessed as viable cells at 10 uM incubated for 24 hrs by Annexin V-PE/7-AAD staining based flow cytometry analysis (Rvb= 98.6%)
Type: functional
Settings: read-out: Activity

Row | Compound | viability at 10 µM [%]
26 | CC(C)=CC[C@@]12OC(C)(C)[C@@H]3C[C@H](C=C4C(=O)c5c(O)cc(O)cc5O[C@]431)C2=O | 50

System: SMMC-7721
Test: Induction of apoptosis in human SMMC-7721 cells assessed as early apoptotic cells at 10 uM incubated for 24 hrs by Annexin V-PE/7-AAD staining based flow cytometry analysis (Rvb= 0.231%)
Type: functional
Settings: not given

Row | Compound | Activity [%]
27 | CC(C)=CC[C@@]12OC(C)(C)[C@@H]3C[C@H](C=C4C(=O)c5c(O)cc(O)cc5O[C@]431)C2=O | 12.7

System: SMMC-7721
Test: Induction of apoptosis in human SMMC-7721 cells assessed as late apoptotic cells at 10 uM incubated for 24 hrs by Annexin V-PE/7-AAD staining based flow cytometry analysis (Rvb= 0.627%)
Type: functional
Settings: not given

Row | Compound | Activity [%]
28 | CC(C)=CC[C@@]12OC(C)(C)[C@@H]3C[C@H](C=C4C(=O)c5c(O)cc(O)cc5O[C@]431)C2=O | 29.1

System: SMMC-7721
Test: Induction of apoptosis in human SMMC-7721 cells assessed as necrotic cells at 10 uM incubated for 24 hrs by Annexin V-FITC/PI staining based flow cytometry analysis (Rvb= 0.572%)
Type: functional
Settings: not given

Row | Compound | Activity [%]
29 | CC(C)=CC[C@@]12OC(C)(C)[C@@H]3C[C@H](C=C4C(=O)c5c(O)cc(O)cc5O[C@]431)C2=O | 8.22

System: SMMC-7721
Test: Induction of apoptosis in human SMMC-7721 cells assessed as viable cells at 20 uM incubated for 24 hrs by Annexin V-PE/7-AAD staining based flow cytometry analysis (Rvb= 98.6%)
Type: functional
Settings: read-out: Activity

Row | Compound | viability at 20 µM [%]
30 | CC(C)=CC[C@@]12OC(C)(C)[C@@H]3C[C@H](C=C4C(=O)c5c(O)cc(O)cc5O[C@]431)C2=O | 6.98

System: SMMC-7721
Test: Induction of apoptosis in human SMMC-7721 cells assessed as early apoptotic cells at 20 uM incubated for 24 hrs by Annexin V-PE/7-AAD staining based flow cytometry analysis (Rvb= 0.231%)
Type: functional
Settings: not given

Row | Compound | Activity [%]
31 | CC(C)=CC[C@@]12OC(C)(C)[C@@H]3C[C@H](C=C4C(=O)c5c(O)cc(O)cc5O[C@]431)C2=O | 20.5

System: SMMC-7721
Test: Induction of apoptosis in human SMMC-7721 cells assessed as late apoptotic cells at 20 uM incubated for 24 hrs by Annexin V-PE/7-AAD staining based flow cytometry analysis (Rvb= 0.627%)
Type: functional
Settings: not given

Row | Compound | Activity [%]
32 | CC(C)=CC[C@@]12OC(C)(C)[C@@H]3C[C@H](C=C4C(=O)c5c(O)cc(O)cc5O[C@]431)C2=O | 68.7

System: SMMC-7721
Test: Induction of apoptosis in human SMMC-7721 cells assessed as necrotic cells at 20 uM incubated for 24 hrs by Annexin V-FITC/PI staining based flow cytometry analysis (Rvb= 0.572%)
Type: functional
Settings: not given

Row | Compound | Activity [%]
33 | CC(C)=CC[C@@]12OC(C)(C)[C@@H]3C[C@H](C=C4C(=O)c5c(O)cc(O)cc5O[C@]431)C2=O | 3.79

System: HL-60
Test: Growth inhibition in human HL-60 cells assessed as reduction in cell viability at 40 uM incubated for 48 hrs by MTS assay relative to control
Type: functional
Settings: read-out: GI

Row | Compound | inhibition of growth at 40 µM [%]
34 | CC(C)=CCc1c(O)cc(O)c2c1O[C@]13C(=C[C@H]4C[C@H]1C(C)(C)O[C@@]3(CC=C(C)C)C4=O)C2=O | > 50
35 | CC1(C)C=Cc2c(cc(O)c3c(=O)c4ccc(O)c(O)c4oc23)O1 | > 50
36 | CC(C)=CC[C@@]12OC(C)(C)[C@@H]3C[C@H](C=C4C(=O)c5c(O)cc(O)cc5O[C@]431)C2=O | > 50

System: A549
Test: Growth inhibition in human A549 cells assessed as reduction in cell viability at 40 uM incubated for 48 hrs by MTS assay relative to control
Type: functional
Settings: read-out: GI

Row | Compound | inhibition of growth at 40 µM [%]
37 | CC(C)=CCc1c(O)cc(O)c2c1O[C@]13C(=C[C@H]4C[C@H]1C(C)(C)O[C@@]3(CC=C(C)C)C4=O)C2=O | > 50
38 | CC1(C)C=Cc2c(cc(O)c3c(=O)c4ccc(O)c(O)c4oc23)O1 | > 50
39 | CC(C)=CC[C@@]12OC(C)(C)[C@@H]3C[C@H](C=C4C(=O)c5c(O)cc(O)cc5O[C@]431)C2=O | > 50

System: SMMC-7721
Test: Growth inhibition in human SMMC-7721 cells assessed as reduction in cell viability at 40 uM incubated for 48 hrs by MTS assay relative to control
Type: functional
Settings: read-out: GI

Row | Compound | inhibition of growth at 40 µM [%]
40 | CC(C)=CCc1c(O)cc(O)c2c1O[C@]13C(=C[C@H]4C[C@H]1C(C)(C)O[C@@]3(CC=C(C)C)C4=O)C2=O | > 50
41 | CC1(C)C=Cc2c(cc(O)c3c(=O)c4ccc(O)c(O)c4oc23)O1 | > 50
42 | CC(C)=CC[C@@]12OC(C)(C)[C@@H]3C[C@H](C=C4C(=O)c5c(O)cc(O)cc5O[C@]431)C2=O | > 50

System: MDA-MB-231
Test: Growth inhibition in human MDA-MB-231 cells assessed as reduction in cell viability at 40 uM incubated for 48 hrs by MTS assay relative to control
Type: functional
Settings: read-out: GI

Row | Compound | inhibition of growth at 40 µM [%]
43 | CC(C)=CCc1c(O)cc(O)c2c1O[C@]13C(=C[C@H]4C[C@H]1C(C)(C)O[C@@]3(CC=C(C)C)C4=O)C2=O | > 50
44 | CC1(C)C=Cc2c(cc(O)c3c(=O)c4ccc(O)c(O)c4oc23)O1 | > 50
45 | CC(C)=CC[C@@]12OC(C)(C)[C@@H]3C[C@H](C=C4C(=O)c5c(O)cc(O)cc5O[C@]431)C2=O | > 50

System: SW480
Test: Growth inhibition in human SW480 cells assessed as reduction in cell viability at 40 uM incubated for 48 hrs by MTS assay relative to control
Type: functional
Settings: read-out: GI

Row | Compound | inhibition of growth at 40 µM [%]
46 | CC(C)=CCc1c(O)cc(O)c2c1O[C@]13C(=C[C@H]4C[C@H]1C(C)(C)O[C@@]3(CC=C(C)C)C4=O)C2=O | > 50
47 | CC1(C)C=Cc2c(cc(O)c3c(=O)c4ccc(O)c(O)c4oc23)O1 | > 50
48 | CC(C)=CC[C@@]12OC(C)(C)[C@@H]3C[C@H](C=C4C(=O)c5c(O)cc(O)cc5O[C@]431)C2=O | > 50

Reference: ChEMBL document CHEMBL5370577, “Structurally Diverse Cytotoxic Polyphenols from Garcinia gracilis” (J Nat Prod, 2023)
